Consider 34 compounds from patent US6472418B1, “Non-peptide NK1 receptors antagonists” (Warner-Lambert Company, priority 1998, dated 2002).

Bounds are passed on as bounds.

A word on the IC50: it is the concentration at which inhibition is half-maximal.

For the first experiment, the target named is T1, Human NK1 Receptor (Homo sapiens, UniProt P25103).
T1 construct: endogenous in cells; host or cells: Human lymphoma IM9 cells (whole cells)
T1 sequence (P25103 whole entry): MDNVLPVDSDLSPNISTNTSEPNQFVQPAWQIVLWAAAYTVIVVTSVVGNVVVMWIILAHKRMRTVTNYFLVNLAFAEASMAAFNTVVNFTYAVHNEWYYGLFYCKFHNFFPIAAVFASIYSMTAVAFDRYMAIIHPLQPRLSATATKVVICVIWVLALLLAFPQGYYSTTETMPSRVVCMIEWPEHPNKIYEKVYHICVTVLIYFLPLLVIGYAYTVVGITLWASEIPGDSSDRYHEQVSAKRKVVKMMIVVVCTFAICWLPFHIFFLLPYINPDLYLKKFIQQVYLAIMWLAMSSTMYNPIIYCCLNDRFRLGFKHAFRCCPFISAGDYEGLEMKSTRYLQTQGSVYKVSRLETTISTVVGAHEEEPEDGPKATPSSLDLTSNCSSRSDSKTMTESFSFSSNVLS
In words: In Vitro Human NK1 Receptor Binding Assay ([125I]Bolton-Hunter substance P displacement, IM9 cells). To be noted: Human lymphoma IM9 cells, [125I]Bolton-Hunter substance P; Table 3, array-synthesis products; read-out: IC50 (nM) hNK1. The method, boiled down:
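Test compounds competed with 0.05-0.1 nM [125I]Bolton-Hunter substance P for binding to intact IM9 cells over 50 min at 21° C, pH 7.4 buffer with MnCl2 and peptidase inhibitors. […] [Sar9, Met(O2)11] substance P gave non-specific binding. Bound counts were measured after filtration and fitted iteratively.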
As to `COc1ccc(CCNC(=O)C(Cc2c[nH]c3ccccc23)NCc2cc3ccccc3o2)cc1` (stereo not shown) [Example 271, 2-[(Benzofuran-2-ylmethyl)-amino]-3-(1H-indol-3-yl)-N-[2-(4-methoxy-phenyl)-ethyl]-propionamide], the IC50 is 196 nM.
In the case of `O=C(NC1CCC(O)CC1)C(Cc1c[nH]c2ccccc12)NCc1cc2ccccc2o1` (stereo not shown) [Example 273, 2-[(Benzofuran-2-ylmethyl)-amino]-N-(4-hydroxy-cyclohexyl)-3-(1H-indol-3-yl)-propionamide], the IC50 is over 10000 nM.
The same measure, in the same setting: the same measure for `O=C(NCCc1ccccc1F)C(Cc1c[nH]c2ccccc12)NCc1cc2ccccc2o1` (stereo not shown) [Example 274, 2-[(Benzofuran-2-ylmethyl)-amino]-N-[2-(2-fluoro-phenyl)-ethyl]-3-(1H-indol-3-yl)-propionamide]: 264 nM.
Take `O=C(NC1CCCCC1)C(Cc1c[nH]c2ccccc12)NCc1cc2ccccc2o1` (stereo not shown) [Example 276, 2-[(Benzofuran-2-ylmethyl)-amino]-N-cyclohexyl-3-(1H-indol-3-yl)-propionamide]: the IC50 was determined as 655 nM.
Take `O=C(NC(CO)CC1CCCCC1)C(Cc1c[nH]c2ccccc12)NCc1cc2ccccc2o1` (stereo not shown) [Example 277, 2-[(Benzofuran-2-ylmethyl)-amino]-N-(2-cyclohexyl-1-hydroxymethyl-ethyl)-3-(1H-indol-3-yl)-propionamide]: the IC50 is 2200 nM.
Take `O=C(NCCCc1ccccc1)C(Cc1c[nH]c2ccccc12)NCc1cc2ccccc2o1` (stereo not shown) [Example 278, 2-[(Benzofuran-2-ylmethyl)-amino]-3-(1H-indol-3-yl)-N-(3-phenyl-propyl)-propionamide]: the IC50 was found to be 2380 nM.
On to `O=C(NCc1ccc(Cl)c(Cl)c1)C(Cc1c[nH]c2ccccc12)NCc1cc2ccccc2o1` (stereo not shown) [Example 279, 2-[(Benzofuran-2-ylmethyl)-amino]-N-(3,4-dichloro-benzyl)-3-(1H-indol-3-yl)-propionamide], for which the IC50 is 30 nM.
With `O=C(NCCc1c[nH]c2ccccc12)C(Cc1c[nH]c2ccccc12)NCc1cc2ccccc2o1` (stereo not shown) [Example 280, 2-[(Benzofuran-2-ylmethyl)-amino]-3-(1H-indol-3-yl)-N-[2-(1H-indol-3-yl)-ethyl]-propionamide], the IC50 came out at 2540 nM.
For the compound `O=C(NCCc1ccc([N+](=O)[O-])cc1)C(Cc1c[nH]c2ccccc12)NCc1cc2ccccc2o1` (stereo not shown) [Example 281, 2-[(Benzofuran-2-ylmethyl)-amino]-3-(1H-indol-3-yl)-N-[2-(4-nitro-phenyl)-ethyl]-propionamide], the IC50 worked out at 51 nM.
Still for that read-out and setting: with `CC(Cc1ccc(Cl)cc1)NC(=O)C(Cc1c[nH]c2ccccc12)NCc1cc2ccccc2o1` (stereo not shown) [Example 282, 2-[(Benzofuran-2-ylmethyl)-amino]-N-[2-(4-chloro-phenyl)-1-methyl-ethyl]-3-(1H-indol-3-yl)-propionamide] the figure was 833 nM.
As for `O=C(NCc1ccc(C(F)(F)F)cc1)C(Cc1c[nH]c2ccccc12)NCc1cc2ccccc2o1` (stereo not shown) [Example 283, 2-[(Benzofuran-2-ylmethyl)-amino]-3-(1H-indol-3-yl)-N-(4-trifluoromethyl-benzyl)-propionamide], the IC50 stood at 420 nM.
Same read-out and setting: the same measure for `O=C(NCCc1ccc(F)cc1)C(Cc1c[nH]c2ccccc12)NCc1cc2ccccc2o1` (stereo not shown) [Example 284, 2-[(Benzofuran-2-ylmethyl)-amino]-N-[2-(4-fluoro-phenyl)-ethyl]-3-(1H-indol-3-yl)-propionamide]: 62 nM; for `O=C(O)C1CCC(CNC(=O)C(Cc2c[nH]c3ccccc23)NCc2cc3ccccc3o2)CC1` (stereo not shown) [Example 286, 4-{[2-[(Benzofuran-2-ylmethyl)-amino]-3-(1H-indol-3-yl)-propionylamino]-methyl}-cyclohexanecarboxylic acid]: over 10000 nM.
Take `N#CC(NC(=O)C(Cc1c[nH]c2ccccc12)NCc1cc2ccccc2o1)c1ccccc1` (stereo not shown) [Example 287, 2-[(Benzofuran-2-ylmethyl)-amino]-N-(cyano-phenyl-methyl)-3-(1H-indol-3-yl)-propionamide]: the IC50 worked out at 35 nM.
`O=C(NCCc1ccc(Cl)cc1)C(Cc1c[nH]c2ccccc12)NCc1cc2ccccc2o1` (stereo not shown) [Example 288, 2-[(Benzofuran-2-ylmethyl)-amino]-N-[2-(4-chloro-phenyl)-ethyl]-3-(1H-indol-3-yl)-propionamide]: the IC50 is 136 nM.
For `O=C(NC(CO)Cc1ccccc1)C(Cc1c[nH]c2ccccc12)NCc1cc2ccccc2o1` (stereo not shown) [Example 289, 2-[(Benzofuran-2-ylmethyl)-amino]-N-(1-hydroxymethyl-2-phenyl-ethyl)-3-(1H-indol-3-yl)-propionamide], the IC50 is 209 nM.
Regarding `CC(NC(=O)C(Cc1c[nH]c2ccccc12)NCc1cc2ccccc2o1)c1ccc(Br)cc1` (stereo not shown) [Example 290, 2-[(Benzofuran-2-ylmethyl)-amino]-N-[1-(4-bromo-phenyl)-ethyl]-3-(1H-indol-3-yl)-propionamide], the IC50 turned out to be 8 nM.
On to `COc1cccc(CCNC(=O)C(Cc2c[nH]c3ccccc23)NCc2cc3ccccc3o2)c1` (stereo not shown) [Example 291, 2-[(Benzofuran-2-ylmethyl)-amino]-3-(1H-indol-3-yl)-N-[2-(3-methoxy-phenyl)-ethyl]-propionamide], for which the IC50 was 1340 nM.
On the same count and under the same terms, the same measure for `O=C(NCc1ccccc1C(F)(F)F)C(Cc1c[nH]c2ccccc12)NCc1cc2ccccc2o1` (stereo not shown) [Example 292, 2-[(Benzofuran-2-ylmethyl)-amino]-3-(1H-indol-3-yl)-N-(2-trifluoromethyl-benzyl)-propionamide]: 1130 nM.
On to `O=C(NCCc1cccc(F)c1)C(Cc1c[nH]c2ccccc12)NCc1cc2ccccc2o1` (stereo not shown) [Example 293, 2-[(Benzofuran-2-ylmethyl)-amino]-N-[2-(3-fluoro-phenyl)-ethyl]-3-(1H-indol-3-yl)-propionamide], for which the IC50 turned out to be 55 nM.
Turning to `CC(NC(=O)C(Cc1c[nH]c2ccccc12)NCc1cc2ccccc2o1)C1CCCCC1` (stereo not shown) [Example 294, 2-[(Benzofuran-2-ylmethyl)-amino]-N-(1-cyclohexyl-ethyl)-3-(1H-indol-3-yl)-propionamide], the IC50 was 58 nM.
Take `O=C(NCCSCc1ccccc1)C(Cc1c[nH]c2ccccc12)NCc1cc2ccccc2o1` (stereo not shown) [Example 296, 2-[(Benzofuran-2-ylmethyl)-amino]-N-(2-benzylsulfanyl-ethyl)-3-(1H-indol-3-yl)-propionamide]: the IC50 is 1340 nM.
The same measure, in the same setting: the same measure for `CC(Cc1c[nH]c2ccccc12)NC(=O)C(Cc1c[nH]c2ccccc12)NCc1cc2ccccc2o1` (stereo not shown) [Example 297, 2-[(Benzofuran-2-ylmethyl)-amino]-3-(1H-indol-3-yl)-N-[2-(1H-indol-3-yl)-1-methyl-ethyl]-propionamide]: 3610 nM.
`O=C(NCc1ccccc1Cl)C(Cc1c[nH]c2ccccc12)NCc1cc2ccccc2o1` (stereo not shown) [Example 298, 2-[(Benzofuran-2-ylmethyl)-amino]-N-(2-chloro-benzyl)-3-(1H-indol-3-yl)-propionamide]: the IC50 came out at 221 nM.
On to `Cc1ccc(CCNC(=O)C(Cc2c[nH]c3ccccc23)NCc2cc3ccccc3o2)cc1` (stereo not shown) [Example 300, 2-[(Benzofuran-2-ylmethyl)-amino]-3-(1H-indol-3-yl)-N-(2-p-tolyl-ethyl)-propionamide], for which the IC50 is 256 nM.
In the case of `O=C(NCc1ccc(F)cc1F)C(Cc1c[nH]c2ccccc12)NCc1cc2ccccc2o1` (stereo not shown) [Example 301, 2-[(Benzofuran-2-ylmethyl)-amino]-N-(2,4-difluoro-benzyl)-3-(1H-indol-3-yl)-propionamide], the IC50 turned out to be 53 nM.
`O=C(NCc1ccccc1Br)C(Cc1c[nH]c2ccccc12)NCc1cc2ccccc2o1` (stereo not shown) [Example 302, 2-[(Benzofuran-2-ylmethyl)-amino]-N-(2-bromo-benzyl)-3-(1H-indol-3-yl)-propionamide]: the IC50 turned out to be 174 nM.
`O=C(NCc1cc(F)cc(C(F)(F)F)c1)C(Cc1c[nH]c2ccccc12)NCc1cc2ccccc2o1` (stereo not shown) [Example 303, 2-[(Benzofuran-2-ylmethyl)-amino]-N-(3-fluoro-5-trifluoromethyl-benzyl)-3-(1H-indol-3-yl)-propionamide]: the IC50 came out at 17 nM.
Regarding `COC(=O)C(NC(=O)C(Cc1c[nH]c2ccccc12)NCc1cc2ccccc2o1)c1ccccc1` (stereo not shown) [Example 304, [2-[(Benzofuran-2-ylmethyl)-amino]-3-(1H-indol-3-yl)-propionylamino]-phenyl-acetic acid methyl ester], the IC50 was 43 nM.
Same read-out and setting: with `O=C(NCCOc1ccccc1)C(Cc1c[nH]c2ccccc12)NCc1cc2ccccc2o1` (stereo not shown) [Example 305, 2-[(Benzofuran-2-ylmethyl)-amino]-3-(1H-indol-3-yl)-N-(2-phenoxy-ethyl)-propionamide] the figure was 400 nM; with `Nc1ccc(CNC(=O)C(Cc2c[nH]c3ccccc23)NCc2cc3ccccc3o2)cc1` (stereo not shown) [Example 306, N-(4-Amino-benzyl)-2-[(benzofuran-2-ylmethyl)-amino]-3-(1H-indol-3-yl)-propionamide], 639 nM; with `CC(CCc1ccccc1)NC(=O)C(Cc1c[nH]c2ccccc12)NCc1cc2ccccc2o1` (stereo not shown) [Example 307, 2-[(Benzofuran-2-ylmethyl)-amino]-3-(1H-indol-3-yl)-N-(1-methyl-3-phenyl-propyl)-propionamide], 392 nM.
For the compound `O=C(NCc1cccc(O)c1)C(Cc1c[nH]c2ccccc12)NCc1cc2ccccc2o1` (stereo not shown) [Example 308, 2-[(Benzofuran-2-ylmethyl)-amino]-N-(3-hydroxy-benzyl)-3-(1H-indol-3-yl)-propionamide], the IC50 amounted to 731 nM.

The experiment is the same for the next values; noted with them: human NK1 receptor, IM9 cells, [125I]Bolton-Hunter substance P; read-out: IC50 (nM) hNK1.
Consider `CC(Cc1c[nH]c2ccccc12)(NCc1cc2ccccc2o1)C(=O)NCc1ccccn1` (stereo not shown) [compound 23, 2-[(Benzofuran-2-ylmethyl)-amino]-3 (1H-indol-3-yl)-2-methyl-N-pyridin-2 ylmethyl-propionamide], for which the IC50 amounted to 1280 nM.
